From ChEMBL document CHEMBL1201862, “PubChem BioAssay data set” (2004)
Values joined by “and” are separate entries in the source; they are usually repeats but may differ in a detail not shown here. Equal entries are not always repeated. Values belong to the compound of their own block, whether it stands above or below them. Active and inactive are the calls of the source.

Legend:
[1] = biological target: Type-1 angiotensin II receptor (Homo sapiens, UniProt P30556); test: agonist activity at AGTR1 – cell-based, uHTS hits, selectivity assay for APJ receptor agonist project, dose response (AID 488865); type: functional;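 note: beta-arrestin recruitment to AT1 measured by enzyme fragment complementation luminescence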
[2] = biological target: T1, Voltage-gated N-type calcium channel alpha-1B subunit/Amyloid beta A4 precursor protein-binding family A member 1 (Homo sapiens, UniProt Q00975+Q02410); type: protein assay
[3] = test system: HEK293; test: inhibition of NOD1-driven NF-kB reporter – cell-based, luminescence, uHTS, primary screen (AID 1578); type: functional; conditions: Homo sapiens
[4] = test system: HEK293; test: cells; type: functional, cell-based; conditions: Homo sapiens
[5] = test system: HEK293; test: cells; type: functional, cell-based; conditions: Homo sapiens; remark: listed apart in the source
[6] = test system: HEK293; test: NOD2 signaling inhibitors in MDP-stimulated cells, cell-based, uHTS, luminescence (AID 2001); type: functional; conditions: Homo sapiens
[7] = biological target: T1, Voltage-gated N-type calcium channel alpha-1B subunit/Amyloid beta A4 precursor protein-binding family A member 1; type: protein assay; remark: listed apart in the source
[8] = biological target: T2, Carboxy-terminal domain RNA polymerase II polypeptide A small phosphatase 1 (Homo sapiens, UniProt Q9GZU7); test: CTDSP1 inhibitors, concentration-response, biochemical, absorbance readout, ultra-high-throughput screen actives (AID 540297); type: functional
T2 sequence (Q9GZU7 whole entry): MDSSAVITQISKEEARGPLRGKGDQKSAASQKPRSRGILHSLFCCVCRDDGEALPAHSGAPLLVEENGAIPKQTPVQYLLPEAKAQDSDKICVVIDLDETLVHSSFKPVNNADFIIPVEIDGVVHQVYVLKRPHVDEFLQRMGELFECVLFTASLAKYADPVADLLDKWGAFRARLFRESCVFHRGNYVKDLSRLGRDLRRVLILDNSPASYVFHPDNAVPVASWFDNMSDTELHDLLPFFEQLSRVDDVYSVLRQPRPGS

[9] = biological target: T3, Tyrosine-protein phosphatase non-receptor type 7 (Homo sapiens, UniProt P35236); test: redox-active compounds inhibiting HePTP phosphatase – biochemical, fluorescence, mechanism study (AID 2068); type: functional
T3 sequence (P35236 whole entry): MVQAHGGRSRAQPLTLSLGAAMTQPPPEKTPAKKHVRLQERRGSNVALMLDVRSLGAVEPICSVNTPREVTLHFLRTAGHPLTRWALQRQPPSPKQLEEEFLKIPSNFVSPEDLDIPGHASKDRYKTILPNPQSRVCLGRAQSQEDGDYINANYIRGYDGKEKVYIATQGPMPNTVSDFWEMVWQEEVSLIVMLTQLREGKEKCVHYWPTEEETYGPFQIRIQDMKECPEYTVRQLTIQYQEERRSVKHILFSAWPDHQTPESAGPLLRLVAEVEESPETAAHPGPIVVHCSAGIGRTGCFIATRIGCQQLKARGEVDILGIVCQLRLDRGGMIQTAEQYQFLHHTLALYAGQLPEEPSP

[10] = biological target: Importin subunit alpha-1 (Homo sapiens, UniProt P52292); test: compounds lowering YIC probe YFP/CFP ratio – biochemical, dry powder samples, FRET, counter-screen for RanGTP-importin-beta inhibitor project, dose response (AID 493094); type: functional
[11] = decrease of insulin promoter-GFP reporter – imaging, high-content screening, mouse beta cells (AID 1628); type: functional; conditions: MIN6
[12] = Trypanosoma cruzi growth suppression in host cells – NIH3T3 host cells, beta-gal luminescence, confirmation (AID 2044); type: functional, cell-based;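 note: intracellular parasites grown in NIH/3T3 mouse fibroblasts as host cells; luminescent beta-galactosidase reporter signal from transgenic T. cruzi replicating inside host cells; inhibitors lower the luminescence signal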
[13] = MIN6 cell viability loss – mouse insulinoma, cytotoxicity control, dose response (AID 2122); type: functional;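 note: confirmatory high-throughput counterscreen run to flag cytotoxic compounds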
[14] = NIH3T3 cell viability loss – ATP luminescence, mouse fibroblasts, counter-screen, dose response (AID 2010); type: functional, cell-based;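 note: cells exposed to compound for about 90 hours before reading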
[15] = RanGTP/importin-beta interaction disruptors – biochemical, plate reader, dry powder, dose response (AID 493048); set-up: species or system Homo sapiens
[16] = biological target: Phosphoethanolamine/phosphocholine phosphatase (Homo sapiens, UniProt Q8TCT1); test: SAR assay for compounds that inhibit PHOSPHO1. [Related pubchem assays (depositor defined):AID1545, AID1565, AID1574]
[17] = biological target: T4, Mannose-6-phosphate isomerase (Homo sapiens, UniProt P34949); test: phosphomannose isomerase inhibition – biochemical, fluorescence intensity, confirmation (AID 1535)
T4 sequence (P34949 whole entry): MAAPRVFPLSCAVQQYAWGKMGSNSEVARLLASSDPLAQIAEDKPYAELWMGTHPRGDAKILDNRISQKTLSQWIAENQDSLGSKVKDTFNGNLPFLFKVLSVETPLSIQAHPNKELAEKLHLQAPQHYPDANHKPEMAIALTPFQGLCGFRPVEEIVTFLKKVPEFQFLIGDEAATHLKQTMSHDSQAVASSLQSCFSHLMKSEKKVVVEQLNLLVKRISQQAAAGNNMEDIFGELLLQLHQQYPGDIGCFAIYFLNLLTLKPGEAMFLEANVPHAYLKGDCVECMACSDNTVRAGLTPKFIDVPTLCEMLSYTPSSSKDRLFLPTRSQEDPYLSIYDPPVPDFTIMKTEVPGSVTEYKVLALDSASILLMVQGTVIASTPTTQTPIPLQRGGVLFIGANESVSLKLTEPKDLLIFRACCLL

[18] = biological target: T5, Mitochondrial peptide methionine sulfoxide reductase (Bos taurus, UniProt P54149); test: Absorbance-based biochemical high throughput dose response assay for activators of Methionine sulfoxide reductase A (MsrA).; type: functional
T5 sequence (P54149 whole entry): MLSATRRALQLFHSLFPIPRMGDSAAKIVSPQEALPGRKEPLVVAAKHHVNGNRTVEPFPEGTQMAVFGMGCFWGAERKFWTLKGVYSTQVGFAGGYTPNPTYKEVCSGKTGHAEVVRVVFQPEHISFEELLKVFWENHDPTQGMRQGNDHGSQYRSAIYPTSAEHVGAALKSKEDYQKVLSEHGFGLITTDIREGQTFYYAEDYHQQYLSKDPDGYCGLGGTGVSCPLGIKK

[19] = biological target: Phosphomannomutase 2 (Homo sapiens, UniProt O15305); test: Counter screen SAR assay for PMM2 inhibitors via a fluorescence intensity assay. [Related pubchem assays (depositor defined):AID1545, AID1574]
[20] = biological target: Large T antigen (Simian virus 40, UniProt P03070); type: functional, Betapolyomavirus macacae;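 note: Confirmatory-stage PubChem screen for compounds that inhibit SV40 T antigen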
[21] = biological target: T6, Hexokinase (Trypanosoma brucei, UniProt Q38C41); test: Confirmation assay for inhibitors of Trypanosoma brucei hexokinase 1-Analogue-first series. [Related pubchem assays (depositor defined):AID1430, AID1632, AID2516, AID2560, AID2579, AID2600, AID449725, AID492951]; type: functional
T6 sequence (Q38C41 whole entry): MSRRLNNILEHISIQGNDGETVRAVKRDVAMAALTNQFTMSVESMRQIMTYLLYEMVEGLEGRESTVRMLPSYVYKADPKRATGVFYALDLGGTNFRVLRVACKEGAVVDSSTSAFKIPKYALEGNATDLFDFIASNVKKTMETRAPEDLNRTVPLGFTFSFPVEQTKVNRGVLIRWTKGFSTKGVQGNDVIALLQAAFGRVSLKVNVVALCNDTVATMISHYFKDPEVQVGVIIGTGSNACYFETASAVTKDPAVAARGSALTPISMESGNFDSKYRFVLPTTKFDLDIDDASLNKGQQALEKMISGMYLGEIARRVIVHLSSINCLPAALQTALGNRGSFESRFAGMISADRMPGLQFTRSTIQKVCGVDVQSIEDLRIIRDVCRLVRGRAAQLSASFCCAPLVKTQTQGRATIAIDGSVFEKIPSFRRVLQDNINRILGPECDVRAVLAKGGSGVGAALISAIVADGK

[22] = biological target: T4, Mannose-6-phosphate isomerase; test: MPI inhibition at elevated mannose 6-phosphate – biochemical, fluorescence intensity, high mannose 6-phosphate, primary screen (AID 1220)
[23] = biological target: DNA dC->dU-editing enzyme APOBEC-3G (Homo sapiens, UniProt Q9HC16); test: Dose Response confirmation of small molecule APOBEC3G DNA Deaminase Inhibitors via a fluorescence-based single-stranded DNA deaminase assay. [Related pubchem assays (depositor defined):AID493012, AID493028]; type: functional
[24] = biological target: Glucose-6-phosphate 1-dehydrogenase (Homo sapiens, UniProt P11413); test: inhibition of Homo sapiens G6PD, dose series – biochemical, fluorescence, selectivity assay for P. falciparum G6PD inhibitor project, dose response (AID 504792); type: functional
[25] = biological target: T4, Mannose-6-phosphate isomerase; test: Confirmation of compounds inhibiting phosphomannose isomerase (PMI) via a fluorescence intensity assay using a high concentration of mannose 6-phosphate. [Related pubchem assays (depositor defined):AID1209, AID1220, AID1545, AID1553, AID1620]
[26] = biological target: T4, Mannose-6-phosphate isomerase; test: MPI enzyme activity inhibition – biochemical, fluorescence intensity, coupled assay, primary screen (AID 1209)
[27] = biological target: Eukaryotic translation initiation factor 4E (Mus musculus, UniProt P63073); test: blockers of eIF4G binding by eIF4E – biochemical, TR-FRET, dose response (AID 855); type: functional;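 note: potency for disrupting eIF4E binding to eIF4GI seen as loss of FRET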
[28] = biological target: Tumor necrosis factor (Homo sapiens, UniProt P01375); test: analog potency on TNFa NF-kB signaling – cell-based, revised, SAR follow-up (AID 2337); type: functional
[29] = biological target: Nucleotide-binding oligomerization domain-containing protein 1 (Homo sapiens, UniProt Q9Y239); test: blockers of NOD1 pathway activity – revised, SAR follow-up (AID 2333); type: functional
[30] = biological target: Nucleotide-binding oligomerization domain-containing protein 2 (Homo sapiens, UniProt Q9HC29); test: inhibition of NOD2-driven NF-kB reporter – cell-based, luminescence, uHTS, HEK293 (AID 1566); type: functional
[31] = biological target: T7, Runt-related transcription factor 1/Core-binding factor subunit beta (Homo sapiens, UniProt Q01196+Q13951); test: Runt domain/CBFb-SMMHC interaction disruptors – biochemical, TR-FRET (AID 1438); type: protein assay
[32] = biological target: T7, Runt-related transcription factor 1/Core-binding factor subunit beta; test: disruptors of Runt domain/CBFb-SMMHC interaction – biochemical, FRET, Cerulean-Runt, Venus-CBFb-SMMHC, uHTS, […] (AID 1434); type: protein assay
[33] = biological target: T8, Oxysterols receptor LXR-beta (Homo sapiens, UniProt P55055); type: functional, cell-based;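 note: Cell-based luminescence dose-response assay of agonist activity at LXR, run as a confirmatory counterscreen to a daf-12 agonist screen; HEK293 cells with Gal4-LXR fusion and GAL4-driven luciferase reporter; agonist potency from rising luciferase signal of a Gal4-LXR reporter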
T8 sequence (P55055 whole entry): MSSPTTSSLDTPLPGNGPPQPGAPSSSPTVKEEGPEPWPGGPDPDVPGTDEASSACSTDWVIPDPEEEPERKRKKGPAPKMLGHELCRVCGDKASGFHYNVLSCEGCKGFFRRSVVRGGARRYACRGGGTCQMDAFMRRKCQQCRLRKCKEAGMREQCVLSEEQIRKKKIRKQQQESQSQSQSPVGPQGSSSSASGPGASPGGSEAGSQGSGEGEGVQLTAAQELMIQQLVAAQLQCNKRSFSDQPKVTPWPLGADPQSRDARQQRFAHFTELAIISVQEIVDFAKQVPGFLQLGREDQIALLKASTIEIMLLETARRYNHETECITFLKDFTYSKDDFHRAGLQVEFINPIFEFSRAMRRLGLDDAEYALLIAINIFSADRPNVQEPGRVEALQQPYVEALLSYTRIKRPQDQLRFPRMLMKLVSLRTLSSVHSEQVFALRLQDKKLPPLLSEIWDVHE

[34] = biological target: NACHT, LRR and PYD domains-containing protein 1 (Homo sapiens, UniProt Q9C000); test: NALP1 inhibitors in yeast, dose response, luminescent (AID 488860); type: functional
[35] = cells
[36] = test system: Saccharomyces cerevisiae; test: S. cerevisiae Caspase-1/ASC signal blockers IC50, NALP1 inhibitor project selectivity test (AID 488863); type: functional, organism-based
[37] = biological target: Voltage-dependent T-type calcium channel subunit alpha-1H (Homo sapiens, UniProt O95180); test: human CACNA1H calcium influx blockade – cell-based, synthetic library set 1, calcium flux (AID 493022); type: functional

T7 sequence (Q01196 whole entry, the tested form may be a part): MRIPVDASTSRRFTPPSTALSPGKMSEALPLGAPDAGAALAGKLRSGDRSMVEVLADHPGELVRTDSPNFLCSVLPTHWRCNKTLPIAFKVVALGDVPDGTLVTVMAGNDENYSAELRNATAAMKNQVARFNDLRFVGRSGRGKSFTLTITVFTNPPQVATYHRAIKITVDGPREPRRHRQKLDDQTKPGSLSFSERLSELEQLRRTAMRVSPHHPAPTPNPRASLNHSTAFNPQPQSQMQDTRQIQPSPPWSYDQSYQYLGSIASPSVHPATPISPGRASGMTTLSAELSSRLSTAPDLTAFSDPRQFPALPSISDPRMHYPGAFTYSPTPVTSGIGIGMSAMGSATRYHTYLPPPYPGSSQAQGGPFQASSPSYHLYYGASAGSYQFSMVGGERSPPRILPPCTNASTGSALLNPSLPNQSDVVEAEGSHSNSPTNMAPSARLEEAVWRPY
T7 sequence (Q13951 whole entry, the tested form may be a part): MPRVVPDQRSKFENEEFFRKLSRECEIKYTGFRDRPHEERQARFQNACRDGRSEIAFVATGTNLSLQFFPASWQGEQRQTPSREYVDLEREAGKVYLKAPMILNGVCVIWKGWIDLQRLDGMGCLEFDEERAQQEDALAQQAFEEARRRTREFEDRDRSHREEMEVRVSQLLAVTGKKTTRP
Phosphoethanolamine/phosphocholine phosphatase, sequence (Q8TCT1 whole entry): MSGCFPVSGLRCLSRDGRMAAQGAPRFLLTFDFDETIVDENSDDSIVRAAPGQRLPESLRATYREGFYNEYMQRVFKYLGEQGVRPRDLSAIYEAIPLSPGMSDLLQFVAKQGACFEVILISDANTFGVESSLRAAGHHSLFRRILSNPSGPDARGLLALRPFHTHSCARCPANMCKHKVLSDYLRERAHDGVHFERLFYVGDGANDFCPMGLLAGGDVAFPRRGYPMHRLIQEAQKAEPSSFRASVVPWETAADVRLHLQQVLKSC
T1 sequence (Q00975 whole entry): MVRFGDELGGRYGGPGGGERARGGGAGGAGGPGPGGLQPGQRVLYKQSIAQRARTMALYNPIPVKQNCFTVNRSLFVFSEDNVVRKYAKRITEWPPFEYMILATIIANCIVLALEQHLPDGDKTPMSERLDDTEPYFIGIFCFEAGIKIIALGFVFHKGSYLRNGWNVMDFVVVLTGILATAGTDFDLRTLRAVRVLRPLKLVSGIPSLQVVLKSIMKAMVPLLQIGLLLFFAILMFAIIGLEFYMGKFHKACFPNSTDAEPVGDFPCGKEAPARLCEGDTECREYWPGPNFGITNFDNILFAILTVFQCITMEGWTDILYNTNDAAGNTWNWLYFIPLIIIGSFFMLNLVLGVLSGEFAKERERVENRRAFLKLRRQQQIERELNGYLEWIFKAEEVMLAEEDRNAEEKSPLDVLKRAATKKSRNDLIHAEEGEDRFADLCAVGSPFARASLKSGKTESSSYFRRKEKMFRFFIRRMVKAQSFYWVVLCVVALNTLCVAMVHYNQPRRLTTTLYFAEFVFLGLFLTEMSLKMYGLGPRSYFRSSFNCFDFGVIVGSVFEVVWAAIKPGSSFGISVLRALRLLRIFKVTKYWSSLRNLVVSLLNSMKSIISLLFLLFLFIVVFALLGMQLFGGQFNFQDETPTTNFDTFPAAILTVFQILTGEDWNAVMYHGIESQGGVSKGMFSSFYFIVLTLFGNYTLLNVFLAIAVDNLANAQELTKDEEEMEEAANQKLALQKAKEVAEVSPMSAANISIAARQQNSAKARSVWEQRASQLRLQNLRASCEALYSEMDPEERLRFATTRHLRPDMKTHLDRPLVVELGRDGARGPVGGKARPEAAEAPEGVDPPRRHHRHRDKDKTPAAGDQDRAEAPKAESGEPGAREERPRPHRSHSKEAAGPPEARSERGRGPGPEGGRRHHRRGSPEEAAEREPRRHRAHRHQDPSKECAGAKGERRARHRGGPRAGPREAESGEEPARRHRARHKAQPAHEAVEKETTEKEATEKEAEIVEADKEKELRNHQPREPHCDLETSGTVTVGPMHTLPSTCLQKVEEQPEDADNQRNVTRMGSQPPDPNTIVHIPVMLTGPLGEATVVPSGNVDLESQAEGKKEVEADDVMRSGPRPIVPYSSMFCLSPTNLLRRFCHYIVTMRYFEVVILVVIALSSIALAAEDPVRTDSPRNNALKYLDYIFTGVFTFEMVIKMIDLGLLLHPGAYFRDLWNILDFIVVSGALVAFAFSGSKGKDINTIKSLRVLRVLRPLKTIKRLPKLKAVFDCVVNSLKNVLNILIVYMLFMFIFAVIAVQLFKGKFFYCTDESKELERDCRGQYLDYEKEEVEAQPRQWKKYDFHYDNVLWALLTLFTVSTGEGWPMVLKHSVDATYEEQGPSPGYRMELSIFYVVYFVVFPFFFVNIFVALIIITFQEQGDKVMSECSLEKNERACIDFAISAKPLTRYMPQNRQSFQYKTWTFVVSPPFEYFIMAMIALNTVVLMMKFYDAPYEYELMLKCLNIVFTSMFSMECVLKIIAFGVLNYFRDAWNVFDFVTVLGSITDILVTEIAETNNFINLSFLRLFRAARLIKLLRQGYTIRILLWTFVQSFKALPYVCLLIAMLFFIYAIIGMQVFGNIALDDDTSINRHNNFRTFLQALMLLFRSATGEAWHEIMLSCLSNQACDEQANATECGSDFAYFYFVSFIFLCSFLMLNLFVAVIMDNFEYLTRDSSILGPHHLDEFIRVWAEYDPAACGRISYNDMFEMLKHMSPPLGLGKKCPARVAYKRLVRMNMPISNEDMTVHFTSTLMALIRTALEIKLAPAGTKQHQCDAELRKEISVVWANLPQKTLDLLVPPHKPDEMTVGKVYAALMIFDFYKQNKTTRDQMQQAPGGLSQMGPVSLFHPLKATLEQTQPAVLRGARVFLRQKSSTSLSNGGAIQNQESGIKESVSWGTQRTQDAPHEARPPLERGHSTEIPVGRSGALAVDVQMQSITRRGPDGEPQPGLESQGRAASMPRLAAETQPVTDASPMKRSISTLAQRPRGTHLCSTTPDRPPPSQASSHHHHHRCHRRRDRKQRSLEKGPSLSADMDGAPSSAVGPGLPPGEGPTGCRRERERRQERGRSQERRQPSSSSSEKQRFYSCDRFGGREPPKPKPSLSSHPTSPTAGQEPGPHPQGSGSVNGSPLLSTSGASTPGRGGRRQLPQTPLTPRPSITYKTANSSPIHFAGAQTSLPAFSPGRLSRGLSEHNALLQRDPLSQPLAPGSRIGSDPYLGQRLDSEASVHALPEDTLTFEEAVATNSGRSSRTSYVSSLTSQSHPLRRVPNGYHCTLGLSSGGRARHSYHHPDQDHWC
T1 sequence (Q02410 whole entry): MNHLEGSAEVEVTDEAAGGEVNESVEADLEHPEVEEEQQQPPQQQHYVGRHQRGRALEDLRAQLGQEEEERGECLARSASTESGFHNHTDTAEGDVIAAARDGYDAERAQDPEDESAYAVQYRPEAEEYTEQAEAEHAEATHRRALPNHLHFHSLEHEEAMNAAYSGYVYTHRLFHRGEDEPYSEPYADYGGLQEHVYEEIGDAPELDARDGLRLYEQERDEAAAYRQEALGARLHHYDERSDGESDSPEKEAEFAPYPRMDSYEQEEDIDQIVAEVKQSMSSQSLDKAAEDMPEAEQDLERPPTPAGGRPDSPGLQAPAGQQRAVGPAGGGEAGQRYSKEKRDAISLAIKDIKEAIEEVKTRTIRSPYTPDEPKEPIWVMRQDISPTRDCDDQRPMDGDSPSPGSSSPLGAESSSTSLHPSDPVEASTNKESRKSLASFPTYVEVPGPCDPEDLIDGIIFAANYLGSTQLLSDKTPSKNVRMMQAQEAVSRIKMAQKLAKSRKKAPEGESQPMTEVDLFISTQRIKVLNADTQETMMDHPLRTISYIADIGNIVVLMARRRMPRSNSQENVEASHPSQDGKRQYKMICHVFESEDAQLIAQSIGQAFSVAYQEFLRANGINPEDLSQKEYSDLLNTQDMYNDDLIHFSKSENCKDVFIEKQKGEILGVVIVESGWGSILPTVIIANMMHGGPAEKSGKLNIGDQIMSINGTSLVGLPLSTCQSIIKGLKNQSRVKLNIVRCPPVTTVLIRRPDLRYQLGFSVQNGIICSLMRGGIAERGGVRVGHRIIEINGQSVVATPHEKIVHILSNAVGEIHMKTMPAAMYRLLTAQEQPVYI
Phosphomannomutase 2, sequence (O15305 whole entry): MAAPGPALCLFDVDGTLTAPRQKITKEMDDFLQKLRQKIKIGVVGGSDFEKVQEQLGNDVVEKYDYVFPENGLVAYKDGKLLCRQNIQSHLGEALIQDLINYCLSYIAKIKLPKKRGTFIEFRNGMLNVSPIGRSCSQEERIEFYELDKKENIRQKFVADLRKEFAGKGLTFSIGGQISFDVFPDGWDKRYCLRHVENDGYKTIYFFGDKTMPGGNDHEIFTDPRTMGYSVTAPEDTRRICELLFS
Eukaryotic translation initiation factor 4E, sequence (P63073 whole entry): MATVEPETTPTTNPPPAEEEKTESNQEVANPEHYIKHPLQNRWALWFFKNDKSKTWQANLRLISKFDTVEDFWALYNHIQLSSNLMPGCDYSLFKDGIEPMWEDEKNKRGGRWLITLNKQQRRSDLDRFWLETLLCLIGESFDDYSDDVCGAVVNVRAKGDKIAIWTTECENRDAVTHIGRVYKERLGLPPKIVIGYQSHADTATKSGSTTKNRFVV
DNA dC->dU-editing enzyme APOBEC-3G, sequence (Q9HC16 whole entry): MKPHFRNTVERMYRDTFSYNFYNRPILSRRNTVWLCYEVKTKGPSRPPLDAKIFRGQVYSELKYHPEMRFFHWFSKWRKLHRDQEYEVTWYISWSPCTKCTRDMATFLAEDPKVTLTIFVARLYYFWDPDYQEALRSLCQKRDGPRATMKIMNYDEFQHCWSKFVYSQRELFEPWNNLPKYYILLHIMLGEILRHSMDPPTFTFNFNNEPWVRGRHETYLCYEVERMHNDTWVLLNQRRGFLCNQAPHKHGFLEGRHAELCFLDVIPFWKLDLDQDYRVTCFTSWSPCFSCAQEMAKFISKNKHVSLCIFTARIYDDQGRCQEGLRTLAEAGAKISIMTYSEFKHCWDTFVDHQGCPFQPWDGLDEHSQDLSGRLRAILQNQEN

- EC50 [1]: > 100 µM (inactive)
Compound: NC(=NOS(=O)(=O)c1ccc2ccccc2c1)c1ccncc1

Compound: COc1ccc2cc3c(N)nn(C(=O)c4ccc(Cl)c([N+](=O)[O-])c4)c3nc2c1
- IC50 [2]: 28.7 µM (active)
- EC50 [3]: 3.5 µM (active)
- IC50 [4]: > 20 µM (inactive)
- IC50 [5]: 1.71 µM (active)
- IC50 [6]: 2.29 µM (active)
- IC50 [7]: 16.1 µM (active)
- IC50 [8]: 1.72 µM (active)

- IC50 [9]: 1.26 µM (active)
Compound: O=C(Nc1ccc2nc(-c3ccco3)c(-c3ccco3)nc2c1)Nc1cccc2ccccc12

Compound: CCOCCCn1c(=N)c(C(=O)NCc2ccc3c(c2)OCO3)cc2c(=O)n3cccc(C)c3nc21
- AC50 [10]: 135 µM (active)
- IC50 [11]: 1.54 µM (active)
- EC50 [12]: 1.27 µM (active)
- IC50 [13]: 5.17 µM (active)
- EC50 [14]: > 60 µM (not active)
- AC50 [15]: 227 µM (active)

Compound: CN(C)S(=O)(=O)c1cccc(-n2sc3ccccc3c2=O)c1
- IC50 [16]: 495 nM (active) and 457 nM (active)
- IC50 [17]: 2.79 µM (active) and 7.06 µM (active)
- EC50 [18]: > 104 µM (inactive)
- IC50 [19]: 13.5 µM (active) and 12.9 µM (active)
- IC50 [20]: 13.3 µM (active)
- IC50 [21]: 7.63 µM (active)
- IC50 [22]: 11.7 µM (active)
- IC50 [23]: 9.11 µM (active)
- IC50 [24]: 12.4 µM (active)
- IC50 [25]: 16.4 µM (active)
- IC50 [26]: 5.25 µM (active)
- IC50 [27]: 13 µM (active)

Compound: O=C(CSc1nc2scc(-c3ccccc3)c2c(=O)[nH]1)Nc1ccccc1
- IC50 [28]: 1.96 µM (active)
- IC50 [29]: 2.83 µM (active)
- EC50 [30]: 0.95 µM (active)

- IC50 [31]: > 100 µM (inactive)
- IC50 [32]: > 100 µM (inactive)
Compound: COc1ccc(OC)c(S(=O)(=O)N(C(C)=O)c2ccc3oc(=O)sc3c2)c1

Compound: CSc1nnc(-c2cc3c(s2)-c2ccccc2CC3)o1
- EC50 [33]: > 67.5 µM (inactive)
- IC50 [34]: > 100 µM (inactive)
- EC50 [35]: > 67.5 µM (inactive)
- IC50 [36]: > 100 µM (inactive)

- EC50 [37]: 2.7 µM (active)
Compound: CC(Oc1ccccc1)C(=O)Nc1nnc(-c2ccc3ccccc3c2)o1 (configuration not stated)
